Experimental data from the NIST ThermoML archive (doi:10.1021/je800110r).
“And” between values parts separate entries of the source, which are not always exact repeats. Equal entries are not always repeated.

Conditions: Liquid, Vibrating tube method

CCCCCCCCCC [decane]
Conditions	mass density
313.16 K, 749 kPa	715.1 kg/m3
313.16 K, 764 kPa	715.3 kg/m3
313.16 K, 784 kPa	715.3 kg/m3
313.16 K, 800 kPa	715.3 kg/m3
313.16 K, 813 kPa	715.2 kg/m3
313.16 K, 837 kPa	715.4 kg/m3
313.16 K, 852 kPa	715.2 kg/m3
313.16 K, 870 kPa	715.4 kg/m3
313.16 K, 891 kPa	715.4 kg/m3
313.16 K, 916 kPa	715.3 kg/m3
313.16 K, 938 kPa	715.3 kg/m3
313.16 K, 958 kPa	715.5 kg/m3
313.16 K, 978 kPa	715.4 kg/m3
323.14 K, 3098 kPa	709.7 kg/m3
323.14 K, 3118 kPa	709.8 kg/m3
323.14 K, 3138 kPa	709.6 kg/m3
323.14 K, 3156 kPa	709.6 kg/m3
323.14 K, 3176 kPa	709.7 kg/m3
323.14 K, 3200 kPa	709.7 kg/m3
323.14 K, 3221 kPa	709.8 kg/m3
323.14 K, 3243 kPa	709.8 kg/m3
323.14 K, 3271 kPa	709.9 kg/m3
323.14 K, 3297 kPa	709.9 kg/m3
323.14 K, 3322 kPa	709.9 kg/m3
323.14 K, 3345 kPa	709.8 kg/m3
323.14 K, 3372 kPa	709.8 kg/m3
323.14 K, 3400 kPa	710 kg/m3
323.14 K, 3430 kPa	709.9 kg/m3
323.14 K, 3451 kPa	710 kg/m3
323.14 K, 3477 kPa	710 kg/m3
323.14 K, 3502 kPa	710.1 kg/m3
323.14 K, 3524 kPa	710.2 kg/m3
323.14 K, 3549 kPa	710.1 kg/m3
323.14 K, 3571 kPa	710.1 kg/m3
323.14 K, 3597 kPa	710.2 kg/m3
323.14 K, 3614 kPa	710.1 kg/m3
323.14 K, 3637 kPa	710.2 kg/m3
323.14 K, 3661 kPa	710.2 kg/m3
323.14 K, 3681 kPa	710.1 kg/m3
323.14 K, 3715 kPa	710.2 kg/m3
323.14 K, 3736 kPa	710.3 kg/m3
323.14 K, 3761 kPa	710.4 kg/m3
323.14 K, 3794 kPa	710.3 kg/m3
323.14 K, 3819 kPa	710.3 kg/m3
323.14 K, 3849 kPa	710.3 kg/m3
323.14 K, 3879 kPa	710.4 kg/m3
323.14 K, 3911 kPa	710.4 kg/m3
323.14 K, 3939 kPa	710.5 kg/m3
323.14 K, 3959 kPa	710.5 kg/m3
323.14 K, 3978 kPa	710.4 kg/m3
323.14 K, 4004 kPa	710.5 kg/m3
323.14 K, 4033 kPa	710.5 kg/m3
323.14 K, 4053 kPa	710.5 kg/m3
323.14 K, 4078 kPa	710.6 kg/m3
323.14 K, 4103 kPa	710.7 kg/m3
323.14 K, 4122 kPa	710.7 kg/m3
323.14 K, 4144 kPa	710.6 kg/m3
323.14 K, 4164 kPa	710.6 kg/m3
323.14 K, 4191 kPa	710.6 kg/m3
323.14 K, 4213 kPa	710.8 kg/m3
323.14 K, 4230 kPa	710.8 kg/m3
323.14 K, 4248 kPa	710.7 kg/m3
323.14 K, 4405 kPa	710.9 kg/m3
323.14 K, 4447 kPa	710.9 kg/m3
323.14 K, 4462 kPa	710.9 kg/m3
323.14 K, 4506 kPa	711 kg/m3
323.14 K, 4528 kPa	711 kg/m3
323.14 K, 4550 kPa	711 kg/m3
323.14 K, 4566 kPa	711 kg/m3
323.14 K, 4587 kPa	711 kg/m3
323.14 K, 4704 kPa	711.1 kg/m3
323.14 K, 4721 kPa	711.2 kg/m3
323.14 K, 4739 kPa	711.2 kg/m3
323.14 K, 4770 kPa	711.2 kg/m3
323.14 K, 4793 kPa	711.3 kg/m3
323.14 K, 4804 kPa	711.2 kg/m3
323.14 K, 4818 kPa	711.3 kg/m3
323.14 K, 4838 kPa	711.3 kg/m3
323.14 K, 4970 kPa	711.3 kg/m3
323.14 K, 5064 kPa	711.5 kg/m3
323.14 K, 5127 kPa	711.5 kg/m3
323.14 K, 5175 kPa	711.5 kg/m3
323.14 K, 5178 kPa	711.6 kg/m3
323.14 K, 5183 kPa	711.6 kg/m3
323.14 K, 5184 kPa	711.5 kg/m3
323.14 K, 5187 kPa	711.6 kg/m3
323.14 K, 5189 kPa	711.6 kg/m3
323.14 K, 5191 kPa	711.6 kg/m3
323.14 K, 5192 kPa	711.5 kg/m3 and 711.6 kg/m3
323.14 K, 5193 kPa	711.5 kg/m3
323.14 K, 5216 kPa	711.7 kg/m3
323.14 K, 5238 kPa	711.6 kg/m3
323.14 K, 5256 kPa	711.7 kg/m3
323.14 K, 5276 kPa	711.6 kg/m3
323.14 K, 5291 kPa	711.7 kg/m3
323.14 K, 5312 kPa	711.6 kg/m3
323.14 K, 5335 kPa	711.7 kg/m3
323.14 K, 5353 kPa	711.8 kg/m3
323.14 K, 5375 kPa	711.7 kg/m3
323.14 K, 5406 kPa	711.8 kg/m3
323.14 K, 5428 kPa	711.7 kg/m3
323.14 K, 5450 kPa	711.7 kg/m3
323.14 K, 5468 kPa	711.9 kg/m3
323.14 K, 5487 kPa	711.9 kg/m3
323.14 K, 5506 kPa	711.8 kg/m3
323.14 K, 5535 kPa	711.9 kg/m3
323.14 K, 5551 kPa	711.8 kg/m3
323.14 K, 5575 kPa	712 kg/m3
323.14 K, 5594 kPa	711.9 kg/m3
323.14 K, 5611 kPa	712 kg/m3
323.14 K, 5631 kPa	712 kg/m3
323.14 K, 5670 kPa	712 kg/m3
323.14 K, 5697 kPa	712.1 kg/m3
323.14 K, 5721 kPa	712.1 kg/m3
323.14 K, 5738 kPa	712.1 kg/m3
323.14 K, 5756 kPa	712 kg/m3
323.14 K, 5770 kPa	712 kg/m3
323.14 K, 5788 kPa	712 kg/m3
323.14 K, 5909 kPa	712.2 kg/m3
323.14 K, 5924 kPa	712.2 kg/m3
323.14 K, 5940 kPa	712.3 kg/m3
323.14 K, 5955 kPa	712.2 kg/m3
323.14 K, 5968 kPa	712.3 kg/m3
323.14 K, 5986 kPa	712.3 kg/m3
323.14 K, 6004 kPa	712.2 kg/m3
323.14 K, 6022 kPa	712.4 kg/m3
323.14 K, 6037 kPa	712.3 kg/m3
323.14 K, 6056 kPa	712.3 kg/m3
323.14 K, 6076 kPa	712.5 kg/m3
323.14 K, 6089 kPa	712.4 kg/m3
323.14 K, 6105 kPa	712.3 kg/m3
323.14 K, 6124 kPa	712.5 kg/m3
323.14 K, 6144 kPa	712.5 kg/m3
323.14 K, 6167 kPa	712.5 kg/m3
323.14 K, 6179 kPa	712.3 kg/m3
323.14 K, 6202 kPa	712.5 kg/m3
323.14 K, 6217 kPa	712.4 kg/m3
